Values quoted from earlier work as cited in patent publication US20130316464A1, “ANALYTE […] AND METHOD” (priority 2010, published 2013).

Test system: erythrocytes
Conditions: whole blood

CC(C)c1cccc(C(C)C)c1O [propofol, 2,6-diisopropylphenol]
proportion of the propofol partitioned into / bound to blood cells (erythrocytes): 30-40%
